Assay results taken from paper PMC9574050, “Design, synthesis, and insecticidal activity of a novel series of flupyrimin analogs bearing 1-aryl-1H-pyrazol-4-yl subunits” (Frontiers in Chemistry, 2022).
Like-named read-outs stand apart in the source and are kept apart here.

Columns and labels:
Type in all cases: in vivo
[1] = system: Plutella xylostella; test: Insecticidal activity against Plutella xylostella (soaking method); settings: Plutella xylostella, 48 h, read-out: Mortality rate (%) P. xylostella
From the text: (§1) Preparation of test agent. Dissolve accurately weighed tested compound in DMF to prepare 1% mother liquor, and then dilute it with distilled water containing 0.1% Tween-80 to corresponding concentrations for later use.
Insecticidal activity against Plutella xylostella ([Yang et al., 2021]). The soaking method was adopted. After soaking a proper amount of radish leaves for 10 s, it was placed in a plastic Petri dish with filter paper and dried naturally in the shade. Each dish was inoculated with 10 2nd instar P. xylostella larvae and placed in an observation room at 22°C with light (16/8 h). The result was counted 2 days later, and the no-response insect body when it was lightly touched with a brush was regarded as dead. Each treatment was repeated three times, and DMF without the tested compound was used as a blank control.
(§2) The insecticidal activities of the test compounds against the abovementioned five insects were calculated by the following formula: P1=(K/N)×100, (1) P2=(Pt−P0)/(1−P0)×100, (2) where P1 is the mortality rate; K is the dead insect number; N is the total number of experimental insects; P2 is the corrected mortality rate; Pt is the mortality rate of treatment; P0 is the mortality rate of CK. If the mortality rate of CK is less than 5%, without the required correction, and if the mortality rate of CK is between 5 and 20%, P2 should be calculated according to formula II.

[2] = system: Aphis craccivora; test: Insecticidal activity against Aphis craccivora (Potter spray tower); settings: read-out: Mortality rate (%) A. craccivora
Experimental: as §1
Insecticidal activity against Aphis craccivora ([Liu et al., 2022]). About 30 nymphs of alfalfa aphid were placed on a horsebean leaf dish, and then 2.5 ml of the tested agent was sprayed with Potter spray tower. After treatment, they were cultured in an observation room at 20–22°C. The result was counted 24 h later, and the no-response insect body when it was lightly touched with tweezers was regarded as dead. Each treatment was repeated three times, and DMF without the tested compound was used as a blank control.
as §2

[3] = system: Chilo suppressalis; test: Insecticidal activity against Chilo suppressalis (soaking method); settings: 96 h, read-out: Mortality rate (%) C. suppressalis
From the text: as §1
Insecticidal activity against Chilo suppressalis ([Huang et al., 2022]). The soaking method was adopted. The Zizania latifolia slices were soaked in a tested solution for 10 s, then taken out, and placed in a plastic Petri dish with filter paper to naturally dry in the shade. […] The result was counted 4 days later, and the no-response insect body when it was lightly touched with a brush was regarded as dead. Each treatment was repeated three times, and DMF without the tested compound was used as a blank control.
as §2

[4] = system: Nilaparvata lugens; test: Insecticidal activity against Nilaparvata lugens (Potter spray tower); settings: 24 h, read-out: Mortality rate (%) N. lugens
From the text: as §1
Insecticidal activity against Nilaparvata lugens ([Ghareeb et al., 2021]). The seedlings with two leaves and one heart were placed in a Petri dish with a bottom diameter of 3 cm and covered with white sand. After the 3rd instar nymphae of N. lugens were stunned by CO2, about 15 nymphae were received in each dish, and then 2.5 ml of the tested agent was sprayed with Potter spray tower. The mortality of N. lugens was investigated 1 day after the treatment. Each treatment was repeated three times, and DMF without the tested compound was used as a blank control.
as §2

[5] = system: Helicoverpa armigera; test: Insecticidal activity against Helicoverpa armigera (soaking method); settings: Helicoverpa armigera, 48 h, read-out: Mortality rate (%) H. armigera
From the text: as §1
Insecticidal activity against Helicoverpa armigera. The soaking method was adopted ([Yang et al., 2022]). After soaking a proper amount of corn leaves for 10 s, they were placed in a plastic Petri dish with filter paper and dried naturally in the shade. Ten larvae of the 2nd instar H. armigera were attached to each dish and placed in an observation room at 26°C with light (16/8 h). The result was counted 2 days later, and the no-response insect body when it was lightly touched with a brush was regarded as dead. Each treatment was repeated 3 times, and DMF without the tested compound was used as a blank control.
as §2

[6] = 400 μg/mL, 2nd instar larvae, counted 2 days later
[7] = 400 μg/mL, 3rd instar larvae, counted 4 days later
[8] = 400 μg/mL, 3rd instar nymphae, 1 day after treatment
[9] = 25 μg/mL, 2nd instar larvae, counted 2 days later
[10] = 100 μg/mL, 2nd instar larvae, counted 2 days later

| Compound | mortality at 400 µg/mL [1, 6] [%] | mortality at 400 µg/mL ([2]; 400 μg/mL, counted 24 h later) [%] | mortality at 400 µg/mL [3, 7] [%] | mortality at 400 µg/mL [4, 8] [%] | mortality at 400 µg/mL [5, 6] [%] | mortality at 25 µg/mL [1, 9] [%] | mortality at 100 µg/mL [1, 10] [%] | further results |
| --- | --- | --- | --- | --- | --- | --- | --- | --- |
| CNC(=O)c1cc(Cl)cc(C)c1NC(=O)c1cc(Br)nn1-c1ncccc1Cl [CAT, chlorantraniliprole, reference compound] |  |  |  |  |  |  |  | mortality at 25 µg/mL [1]: 100%; mortality at 100 µg/mL [1]: 100%; mortality at 400 µg/mL [1]: 100%; mortality at 400 µg/mL ([2]; 24 h): 0%; mortality at 100 µg/mL [3]: 100%; mortality at 400 µg/mL [3]: 100%; mortality at 400 µg/mL [4]: 0%; mortality at 400 µg/mL [5]: 100% |
| O=C(/N=c1\ccccn1Cc1cnn(-c2ccccc2)c1C(F)(F)F)C(F)(F)F [Compound A1, (E)-2,2,2-trifluoro-N-(1-((1-phenyl-5-(trifluoromethyl)-1H-pyrazol-4-yl)methyl)pyridin-2(1H)-ylidene)acetamide] | 76.7 | 0 | 0 | 0 | 0 |  |  |  |
| O=C(/N=c1\ccccn1Cc1cnn(-c2cccc(F)c2)c1C(F)(F)F)C(F)(F)F [Compound A3, (E)-2,2,2-trifluoro-N-(1-((1-(3-fluorophenyl)-5-(trifluoromethyl)-1H-pyrazol-4-yl)methyl)pyridin-2(1H)-ylidene)acetamide] | 100 | 0 | 0 | 0 | 0 | 0 | 86.7 |  |
| O=C(/N=c1\ccccn1Cc1cnn(-c2ccc(Cl)cc2)c1C(F)(F)F)C(F)(F)F [Compound A4, (E)-N-(1-((1-(4-chlorophenyl)-5-(trifluoromethyl)-1H-pyrazol-4-yl)methyl)pyridin-2(1H)-ylidene)-2,2,2-trifluoroacetamide] | 0 | 0 | 0 | 0 | 0 |  |  |  |
| O=C(/N=c1\ccccn1Cc1cnn(-c2ccc(C(F)(F)F)cc2)c1C(F)(F)F)C(F)(F)F [Compound A5, (E)-2,2,2-trifluoro-N-(1-((5-(trifluoromethyl)-1-(4-(trifluoromethyl)phenyl)-1H-pyrazol-4-yl)methyl)pyridin-2(1H)-ylidene)acetamide] | 73.3 | 0 | 0 | 0 | 0 |  |  |  |
| O=C(/N=c1\ccccn1Cc1cnn(-c2cccc(Cl)c2)c1C(F)F)C(F)(F)F [Compound A6, (E)-N-(1-((1-(3-chlorophenyl)-5-(difluoromethyl)-1H-pyrazol-4-yl)methyl)pyridin-2(1H)-ylidene)-2,2,2-trifluoroacetamide] | 50 | 0 | 0 | 100 | 0 |  |  | mortality at 100 µg/mL ([4]; 100 μg/mL, 3rd instar nymphae, 1 day after treatment): 0% |
| O=C(/N=c1\ccccn1Cc1cnn(-c2cccc(F)c2)c1C(F)F)C(F)(F)F [Compound A7, (E)-N-(1-((5-(difluoromethyl)-1-(3-fluorophenyl)-1H-pyrazol-4-yl)methyl)pyridin-2(1H)-ylidene)-2,2,2-trifluoroacetamide] | 63.3 | 0 | 0 | 0 | 0 |  |  |  |
| O=C(/N=c1\ccccn1Cc1cnn(-c2ccc(F)cc2)c1C(F)F)C(F)(F)F [Compound A8, (E)-N-(1-((5-(difluoromethyl)-1-(4-fluorophenyl)-1H-pyrazol-4-yl)methyl)pyridin-2(1H)-ylidene)-2,2,2-trifluoroacetamide] | 0 | 0 | 0 | 0 | 0 |  |  |  |
| COCC(=O)/N=c1\ccccn1Cc1cnn(-c2ccccc2)c1C(F)(F)F [Compound B1, (E)-2-methoxy-N-(1-((1-phenyl-5-(trifluoromethyl)-1H-pyrazol-4-yl)methyl)pyridin-2(1H)-ylidene)acetamide] | 100 | 0 | 0 | 48.9 | 0 | 16.7 | 100 |  |
| COCC(=O)/N=c1\ccccn1Cc1cnn(-c2ccccc2Cl)c1C(F)(F)F [Compound B2, (E)-N-(1-((1-(2-chlorophenyl)-5-(trifluoromethyl)-1H-pyrazol-4-yl)methyl)pyridin-2(1H)-ylidene)-2-methoxyacetamide] | 100 | 0 | 0 | 0 | 0 | > 70 | 96.7 |  |
| COCC(=O)/N=c1\ccccn1Cc1cnn(-c2cccc(F)c2)c1C(F)(F)F [Compound B3, (E)-N-(1-((1-(3-fluorophenyl)-5-(trifluoromethyl)-1H-pyrazol-4-yl)methyl)pyridin-2(1H)-ylidene)-2-methoxyacetamide] | 100 | 0 | 0 | 0 | 0 | > 70 | 100 |  |
| COCC(=O)/N=c1\ccccn1Cc1cnn(-c2ccc(C(F)(F)F)cc2)c1C(F)(F)F [Compound B5, (E)-2-methoxy-N-(1-((5-(trifluoromethyl)-1-(4-(trifluoromethyl)phenyl)-1H-pyrazol-4-yl)methyl)pyridin-2(1H)-ylidene)acetamide] | 100 | 0 | 0 | 0 | 0 | 0 | 100 |  |
| O=C(/N=c1\ccccn1Cc1cnn(-c2ccc(C(F)(F)F)cc2)c1C(F)(F)F)C(F)(F)C(F)(F)F [Compound C5, (E)-2,2,3,3,3-pentafluoro-N-(1-((5-(trifluoromethyl)-1-(4-(trifluoromethyl)phenyl)-1H-pyrazol-4-yl)methyl)pyridin-2(1H)-ylidene)propanamide] | 70 | 0 | 100 |  | 0 |  |  | mortality at 100 µg/mL ([3]; 100 μg/mL, 3rd instar larvae, counted 4 days later): 0% |
| O=C(/N=c1\ccccn1Cc1cnn(-c2ccc(F)cc2)c1C(F)F)C(F)(F)C(F)(F)F [Compound C8, (E)-N-(1-((5-(difluoromethyl)-1-(4-fluorophenyl)-1H-pyrazol-4-yl)methyl)pyridin-2(1H)-ylidene)-2,2,3,3,3-pentafluoropropanamide] |  | 0 | 0 | 0 | 0 |  |  |  |
